ChEMBL document CHEMBL1151175, “Cytotoxic sesquiterpenoids from Eupatorium chinense” (J Nat Prod, 2004)
In brackets after ≈: the same amount, converted by molar mass.

Legend:
Bel-7402 = experiment: Cytotoxicity against human Bel7402 cells; type: functional, cell-based
HL-60 = experiment: Cytotoxicity against human HL60 cells; type: functional, cell-based

**Q.** Which results are given for `C=C1C(=O)O[C@H]2[C@H]1[C@H](OC(=O)/C(C)=C\C)CC(CO)=C1C[C@H](O)[C@](C)(O)[C@@H]12` [EUPACHINILIDE A]?
**A.** IC50 (Bel-7402): 72.2 µg/mL (≈ 191 µM); IC50 (HL-60): 10.8 µg/mL (≈ 28.5 µM)

**Q.** `C=C1C(=O)O[C@H]2[C@H]1[C@H](OC(=O)/C(C)=C/CO)C[C@](O)(CCl)[C@@H]1[C@H](O)[C@H]3O[C@@]3(C)[C@H]21` [EUPACHINILIDE E] was tested. Which IC50 (Bel-7402) did it give?
**A.** 18 µg/mL (≈ 42 µM)

**Q.** And the IC50 (HL-60)?
**A.** 1.3 µg/mL (≈ 3.03 µM)

**Q.** Which IC50 (Bel-7402) does the source give for `C=C1C(=O)O[C@@H]2/C=C(\C)C[C@H](O)/C=C(\C)C[C@@H](OC(=O)/C(C)=C/COC(C)=O)[C@@H]12` [EUPACHINILIDE I] here?
**A.** 3.6 µg/mL (≈ 8.9 µM)

**Q.** And the IC50 (HL-60)?
**A.** 0.94 µg/mL (≈ 2.32 µM)

**Q.** How did the IC50 (Bel-7402) turn out when `C=C1C(=O)O[C@H]2[C@H]1[C@H](OC(=O)/C(C)=C/CO)C[C@](O)(CCl)[C@@H]1[C@H](OC(C)=O)[C@H]3O[C@@]3(C)[C@H]21` [EUPACHNILIDE F] was run?
**A.** 3.7 µg/mL (≈ 7.86 µM)

**Q.** What about the IC50 (HL-60) of the same compound?
**A.** 0.87 µg/mL (≈ 1.85 µM)

**Q.** Which IC50 (Bel-7402) does the source give for `CC[C@@]1(O)C(=O)OCc2c1cc1n(c2=O)Cc2cc3cc(O)ccc3nc2-1` [HYDROXYCAMPTOTHECIN] here?
**A.** 0.62 µg/mL (≈ 1.7 µM)

**Q.** And the IC50 (HL-60)?
**A.** 0.024 µg/mL (≈ 0.0659 µM)
